Measured values: the supplement of paper PMC10307832

Key:
Experiment in all cases: relative viability (nuclei count vs DMSO), 5 days (fraction); higher = more cells survive
[1] = system: A-427
Procedure, shortened: (§1)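 Lung cancer cell lines in 1536-well plates got either a single drug or a fixed anchor-drug dose together with five library-drug doses (not always all listed) in √10 steps, by pin tool, on the day after seeding. Nuclei were counted after 5 days, and relative viability is the treated-to-vehicle ratio of nuclei counts. Values are medians of duplicate plates.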

[2] = system: ABC-1
Procedure, shortened: as §1

[3] = system: H3255
Procedure, shortened: as §1

[4] = system: NCI-H1355
Procedure, shortened: as §1

[5] = system: NCI-H1437
Procedure, shortened: as §1

[6] = system: NCI-H1651
Procedure, shortened: as §1

[7] = system: NCI-H1666
Procedure, shortened: as §1

[8] = system: NCI-H1792
Procedure, shortened: as §1

[9] = system: NCI-H1793
Procedure, shortened: as §1

[10] = system: NCI-H2009
Procedure, shortened: as §1

[11] = system: NCI-H2023
Procedure, shortened: as §1

[12] = system: NCI-H2087
Procedure, shortened: as §1

[13] = system: NCI-H23
Procedure, shortened: as §1

[14] = system: NCI-H358
Procedure, shortened: as §1

[15] = system: NCI-H522
Procedure, shortened: as §1

[16] = system: NCI-H596
Procedure, shortened: as §1

[17] = system: NCI-H727
Procedure, shortened: as §1

[18] = system: NCI-H838
Procedure, shortened: as §1

[19] = system: PC-14
Procedure, shortened: as §1

[20] = system: SK-MES-1
Procedure, shortened: as §1

[21] = system: SW 1573
Procedure, shortened: as §1

[22] = system: UMC-11
Procedure, shortened: as §1

C=C1C(=O)O[C@@H](CCCCCCCC)[C@@H]1C(=O)O [C-75] + Nc1ncn([C@H]2C[C@H](O)[C@@H](CO)O2)c(=O)n1 [Decitabine] (partner 2 µM)
relative viability ([1]; first compound 0.08 µM): 0.607
relative viability ([1]; first compound 0.253 µM): 0.533
relative viability ([1]; first compound 0.8 µM): 0.487
relative viability ([1]; first compound 2.53 µM): 0.428
relative viability ([1]; first compound 8 µM): 0.512
relative viability ([2]; first compound 0.08 µM): 1.03
relative viability ([2]; first compound 0.253 µM): 1.18
relative viability ([2]; first compound 0.8 µM): 1.08
relative viability ([2]; first compound 2.53 µM): 0.72
relative viability ([2]; first compound 8 µM): 0.81
relative viability ([3]; first compound 0.08 µM): 0.535
relative viability ([3]; first compound 0.253 µM): 0.599
relative viability ([3]; first compound 0.8 µM): 0.74
relative viability ([3]; first compound 2.53 µM): 0.585
relative viability ([3]; first compound 8 µM): 0.652
relative viability ([4]; first compound 0.08 µM): 0.333
relative viability ([4]; first compound 0.253 µM): 0.374
relative viability ([4]; first compound 0.8 µM): 0.36
relative viability ([4]; first compound 2.53 µM): 0.324
relative viability ([4]; first compound 8 µM): 0.355
relative viability ([5]; first compound 0.08 µM): 0.57
relative viability ([5]; first compound 0.253 µM): 0.586
relative viability ([5]; first compound 0.8 µM): 0.577
relative viability ([5]; first compound 8 µM): 0.48
relative viability ([6]; first compound 0.08 µM): 0.565
relative viability ([6]; first compound 0.253 µM): 0.685
relative viability ([6]; first compound 0.8 µM): 0.559
relative viability ([6]; first compound 2.53 µM): 0.381
relative viability ([6]; first compound 8 µM): 0.599
relative viability ([7]; first compound 0.08 µM): 0.741
relative viability ([7]; first compound 0.253 µM): 0.786
relative viability ([7]; first compound 0.8 µM): 0.709
relative viability ([7]; first compound 2.53 µM): 0.638
relative viability ([7]; first compound 8 µM): 0.678
relative viability ([8]; first compound 0.08 µM): 0.516
relative viability ([8]; first compound 0.253 µM): 0.554
relative viability ([8]; first compound 0.8 µM): 0.509
relative viability ([8]; first compound 2.53 µM): 0.494
relative viability ([8]; first compound 8 µM): 0.475
relative viability ([9]; first compound 0.08 µM): 0.485
relative viability ([9]; first compound 0.253 µM): 0.571
relative viability ([9]; first compound 2.53 µM): 0.275
relative viability ([9]; first compound 8 µM): 0.449
relative viability ([10]; first compound 0.08 µM): 0.37
relative viability ([10]; first compound 0.253 µM): 0.393
relative viability ([10]; first compound 0.8 µM): 0.327
relative viability ([10]; first compound 2.53 µM): 0.314
relative viability ([10]; first compound 8 µM): 0.338
relative viability ([11]; first compound 0.08 µM): 0.242
relative viability ([11]; first compound 0.253 µM): 0.22
relative viability ([11]; first compound 0.8 µM): 0.22
relative viability ([11]; first compound 8 µM): 0.188
relative viability ([12]; first compound 0.08 µM): 0.281
relative viability ([12]; first compound 0.253 µM): 0.269
relative viability ([12]; first compound 0.8 µM): 0.35
relative viability ([12]; first compound 2.53 µM): 0.217
relative viability ([12]; first compound 8 µM): 0.231
relative viability ([13]; first compound 0.08 µM): 0.307
relative viability ([13]; first compound 0.253 µM): 0.334
relative viability ([13]; first compound 0.8 µM): 0.308
relative viability ([13]; first compound 2.53 µM): 0.249
relative viability ([13]; first compound 8 µM): 0.247
relative viability ([14]; first compound 0.08 µM): 0.212
relative viability ([14]; first compound 0.253 µM): 0.211
relative viability ([14]; first compound 0.8 µM): 0.203
relative viability ([14]; first compound 8 µM): 0.18
relative viability ([15]; first compound 0.08 µM): 0.741
relative viability ([15]; first compound 0.253 µM): 0.693
relative viability ([15]; first compound 0.8 µM): 0.763
relative viability ([15]; first compound 2.53 µM): 0.555
relative viability ([15]; first compound 8 µM): 0.599
relative viability ([16]; first compound 0.08 µM): 0.943
relative viability ([16]; first compound 0.253 µM): 1.16
relative viability ([16]; first compound 0.8 µM): 0.953
relative viability ([16]; first compound 2.53 µM): 1.07
relative viability ([16]; first compound 8 µM): 0.96
relative viability ([17]; first compound 0.08 µM): 0.887
relative viability ([17]; first compound 0.253 µM): 0.955
relative viability ([17]; first compound 0.8 µM): 0.807
relative viability ([17]; first compound 2.53 µM): 0.767
relative viability ([17]; first compound 8 µM): 0.873
relative viability ([18]; first compound 0.08 µM): 0.445
relative viability ([18]; first compound 0.253 µM): 0.45
relative viability ([18]; first compound 0.8 µM): 0.434
relative viability ([18]; first compound 2.53 µM): 0.369
relative viability ([18]; first compound 8 µM): 0.372
relative viability ([19]; first compound 0.08 µM): 0.226
relative viability ([19]; first compound 0.253 µM): 0.233
relative viability ([19]; first compound 0.8 µM): 0.216
relative viability ([19]; first compound 2.53 µM): 0.191
relative viability ([19]; first compound 8 µM): 0.168
relative viability ([20]; first compound 0.08 µM): 0.439
relative viability ([20]; first compound 0.253 µM): 0.367
relative viability ([20]; first compound 0.8 µM): 0.368
relative viability ([20]; first compound 2.53 µM): 0.412
relative viability ([20]; first compound 8 µM): 0.311
relative viability ([21]; first compound 0.08 µM): 0.464
relative viability ([21]; first compound 0.253 µM): 0.51
relative viability ([21]; first compound 0.8 µM): 0.434
relative viability ([21]; first compound 2.53 µM): 0.385
relative viability ([21]; first compound 8 µM): 0.351
relative viability ([22]; first compound 0.08 µM): 0.696
relative viability ([22]; first compound 0.253 µM): 0.642
relative viability ([22]; first compound 0.8 µM): 0.577
relative viability ([22]; first compound 2.53 µM): 0.642
relative viability ([22]; first compound 8 µM): 0.434
